In patent US20260138961A1, “MODULATORS OF MITOCHONDRIAL DNA REPLICATION” (Pretzel Therapeutics, Inc., priority 2022, published 2026):

target: T1, POLγA:A467T (Homo sapiens, UniProt P54098, A467T); assay: DNA polymerization assay, POLγA:A467T mutant; assay type: biochemical; settings: stimulation of polymerase activity, primed M13mp18 ssDNA, 37° C. 2 hours; read-out: A467T AC50
T1 sequence (P54098 1-1239 A467T): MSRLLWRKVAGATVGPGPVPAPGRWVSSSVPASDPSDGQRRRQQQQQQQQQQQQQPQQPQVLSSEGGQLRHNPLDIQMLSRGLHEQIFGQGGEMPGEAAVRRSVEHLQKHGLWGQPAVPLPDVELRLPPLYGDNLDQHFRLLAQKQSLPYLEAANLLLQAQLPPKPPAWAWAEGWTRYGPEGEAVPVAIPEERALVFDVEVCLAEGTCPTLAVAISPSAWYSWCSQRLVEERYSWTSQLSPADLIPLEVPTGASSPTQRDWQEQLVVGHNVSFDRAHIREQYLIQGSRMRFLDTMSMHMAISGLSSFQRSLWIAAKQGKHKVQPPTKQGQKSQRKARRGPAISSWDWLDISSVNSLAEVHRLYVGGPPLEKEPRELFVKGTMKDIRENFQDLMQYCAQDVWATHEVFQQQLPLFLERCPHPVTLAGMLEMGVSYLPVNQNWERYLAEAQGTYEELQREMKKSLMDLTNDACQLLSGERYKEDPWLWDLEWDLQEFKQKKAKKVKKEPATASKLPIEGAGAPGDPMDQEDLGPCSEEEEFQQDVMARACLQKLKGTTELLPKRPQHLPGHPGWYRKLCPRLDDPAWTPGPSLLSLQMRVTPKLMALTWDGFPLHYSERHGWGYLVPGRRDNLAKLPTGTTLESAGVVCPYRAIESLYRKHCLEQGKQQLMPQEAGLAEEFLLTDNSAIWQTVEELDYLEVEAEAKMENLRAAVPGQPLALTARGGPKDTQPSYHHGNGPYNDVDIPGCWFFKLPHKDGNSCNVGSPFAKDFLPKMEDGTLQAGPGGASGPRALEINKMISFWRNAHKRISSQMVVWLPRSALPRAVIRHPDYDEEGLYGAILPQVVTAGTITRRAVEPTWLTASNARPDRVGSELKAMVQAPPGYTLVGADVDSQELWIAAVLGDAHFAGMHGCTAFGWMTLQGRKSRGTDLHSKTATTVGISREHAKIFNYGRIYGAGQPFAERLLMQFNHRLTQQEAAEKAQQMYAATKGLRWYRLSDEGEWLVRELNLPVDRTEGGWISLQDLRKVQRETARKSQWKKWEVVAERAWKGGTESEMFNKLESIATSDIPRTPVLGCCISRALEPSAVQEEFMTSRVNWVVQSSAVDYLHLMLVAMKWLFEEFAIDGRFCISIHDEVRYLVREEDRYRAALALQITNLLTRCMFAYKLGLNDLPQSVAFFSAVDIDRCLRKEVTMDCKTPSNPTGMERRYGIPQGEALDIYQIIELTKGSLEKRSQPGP
T1 sequence (Q9UHN1 1-485 partner): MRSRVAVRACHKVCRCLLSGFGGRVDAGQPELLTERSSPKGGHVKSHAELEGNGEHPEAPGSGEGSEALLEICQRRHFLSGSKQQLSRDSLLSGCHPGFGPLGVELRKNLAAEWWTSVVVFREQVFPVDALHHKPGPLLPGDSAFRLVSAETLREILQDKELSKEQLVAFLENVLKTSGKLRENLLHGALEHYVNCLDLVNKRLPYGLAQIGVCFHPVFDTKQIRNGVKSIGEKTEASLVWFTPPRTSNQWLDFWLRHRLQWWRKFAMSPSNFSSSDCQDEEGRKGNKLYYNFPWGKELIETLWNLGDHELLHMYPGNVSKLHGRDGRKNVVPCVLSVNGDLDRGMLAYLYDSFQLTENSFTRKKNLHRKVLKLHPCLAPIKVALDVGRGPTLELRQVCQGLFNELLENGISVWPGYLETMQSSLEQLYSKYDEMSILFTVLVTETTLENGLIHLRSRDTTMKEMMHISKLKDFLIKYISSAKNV
Protocol: DNA Polymerization Assay to Monitor Effects on Human Wildtype POLγ and Four Disease-Causing Mutant Variants of Human POLγ.
The ability of small molecules to stimulate the polymerase activity of POLγ was analyzed in a quantitative fluorescence SYBR Green I assay with fluorescence intensity (FI) readout.
In the presence of dNTPs, wild type human POLγ and mutant derivatives thereof were incubated with single-stranded, circular M13mp18 ssDNA hybridized to a short DNA oligonucleotide that functions as a primer for initiation of DNA synthesis. POLγ and mutant derivatives thereof will extend the primer and use the M13mp18 molecule as a template to synthesize long stretches of double-stranded DNA. SYBR Green I, which is a double-stranded DNA-binding dye, was used to quantify formation of double-stranded DNA in the reaction. When bound to double-stranded DNA, SYBR Green I fluorescence increases by up to 100-fold.
The assay was performed in the 384-well plate format. Upon addition of compounds, changes in double-stranded DNA synthesis activity can be monitored by following effects on fluorescent intensity.
The reactions also contained the accessory POLγB subunit, and the human mitochondrial single-stranded DNA binding protein (mtSSB).
The DNA template mixture used in the assay contained 0.5 nM primed M13 mp18 ssDNA, 400 nM mtSSB, 0.1 mM Tris-HCl (pH 8.0), 0.1 mM dNTP, 10 mM MgCl2, 0.1 mg/mL BSA, 1 mM TCEP solution, and 0.02% Triton X-100. The DNA template mixture for the wild type protein contained either 100 μM dNTP, 1 μM dNTP, or 0.1 μM dNTP, designated in Table 2 as 100 μM, 1 μM, and 0.1 μM, respectfully.
Microplates with compounds (0.1 μL in each well) to be tested in the assay were prepared from 10 mM compound stocks in 100% DMSO, and equal amounts of DMSO without any compound were added to positive and negative control wells.
The protein mixture was dispensed (5 μL into each well) into compound plates and incubated at 37° C. for 15 minutes. After incubation, 5 μL of the DNA template mixture was dispensed into each well. The plates were then incubated at 37° C. for 2 hours.
During incubation, a combined stop buffer and detection reagent solution was prepared. The buffer contained 25 mM EDTA (pH 8.0), 0.02% Triton X-100, and SYBR Green I [Invitrogen] diluted 10,000× (for fluorescent readout). EDTA will stop the enzymatic reaction by chelating magnesium ions.

In order of falling AC50:
1. Cc1ccc(C)c(S(=O)(=O)Nc2cccc(C(=O)N3CCCC[C@@H]3C)c2)c1 [Example 6, (S)-2,5-dimethyl-N-(3-(2-methylpiperidine-1-carbonyl)phenyl)benzenesulfonamide]  95 µM
2. Cc1ccc(C)c(S(=O)(=O)Nc2cccc(C(=O)N3CCCCC3C#N)c2)c1 (centres unmarked) [Example 2, N-(3-(2-cyanopiperidine-1-carbonyl)phenyl)-2,5-dimethylbenzenesulfonamide]  60 µM
3. Cc1ccc(C)c(S(=O)(=O)Nc2cccc(C(=O)NCC3CC3)c2)c1 [Example 4, N-(cyclopropylmethyl)-3-((2,5-dimethylphenyl)sulfonamido)benzamide]  52 µM
4. Cc1cc(S(=O)(=O)Nc2cccc(C(=O)NCc3ccccc3)c2)c(C)cc1Cl [Example 11, N-benzyl-3-((4-chloro-2,5-dimethylphenyl)sulfonamido)benzamide]  49 µM
5. Cc1ccc(C)c(S(=O)(=O)Nc2cccc(C(=O)N3CCCCC3)c2)c1 [Example 3, 2,5-dimethyl-N-(3-(piperidine-1-carbonyl)phenyl)benzene sulfonamide]  48 µM
6. Cc1cc(S(=O)(=O)Nc2cccc(C(=O)N(C)C)c2)c(C)cc1Cl [Example 12, 3-((4-chloro-2,5-dimethylphenyl)sulfonamido)-N,N-dimethylbenzamide]  45 µM
7. Cc1ccc(C)c(S(=O)(=O)Nc2cccc(C(=O)N[C@@H](C)C3CC3)c2)c1 [Example 8, (S)-N-(1-cyclopropylethyl)-3-((2,5-dimethylphenyl)sulfonamido)benzamide]  39 µM
8. Cc1ccc(C)c(S(=O)(=O)Nc2cccc(C(=O)N3CCOCC3C#N)c2)c1 (centres unmarked) [Example 7, N-(3-(3-cyanomorpholine-4-carbonyl)phenyl)-2,5-dimethylbenzenesulfonamide]  37 µM
9. Cc1ccc(C)c(S(=O)(=O)Nc2cccc(C(=O)N3CCCC[C@H]3C)c2)c1 [Example 5, (R)-2,5-dimethyl-N-(3-(2-methylpiperidine-1-carbonyl)phenyl)benzenesulfonamide]  33 µM
10. Cc1cc(S(=O)(=O)Nc2cc(F)cc(C(=O)N3CCC[C@H]3C)c2)c(C)cc1Cl [Example 13, (R)-4-chloro-N-(3-fluoro-5-(2-methylpyrrolidine-1-carbonyl)phenyl)-2,5-dimethylbenzenesulfonamide]  33 µM
11. Cc1cc(S(=O)(=O)Nc2cccc(C(=O)N(C)C(C)CO)c2)c(C)cc1Cl (single isomer, unassigned) [Example 14, 3-((4-chloro-2,5-dimethylphenyl)sulfonamido)-N-(1-hydroxypropan-2-yl)-N-methylbenzamide]  28 µM
12. Cc1cc(S(=O)(=O)Nc2cccc(C(=O)N3CCCC[C@H]3C)c2)c(C)cc1Cl [Example 9, (R)-4-chloro-2,5-dimethyl-N-(3-(2-methylpiperidine-1-carbonyl)phenyl)benzenesulfonamide]  18 µM
13. Cc1cc(S(=O)(=O)Nc2cccc(-c3ccn(C)n3)c2)c(C)cc1Cl [Example 18, 4-chloro-2,5-dimethyl-N-(3-(1-methyl-1H-pyrazol-3-yl)phenyl)benzenesulfonamide]  17 µM
14. Cc1cc(S(=O)(=O)Nc2cccc(C(=O)N3CCC[C@H]3C)c2)c(C)cc1Cl [Example 10, (R)-4-chloro-2,5-dimethyl-N-(3-(2-methylpyrrolidine-1-carbonyl)phenyl)benzenesulfonamide]  12 µM
15. Cc1cc(S(=O)(=O)Nc2cccc(-c3nccn3C)c2)c(C)cc1Cl [Example 19, 4-chloro-2,5-dimethyl-N-(3-(1-methyl-1H-imidazol-2-yl)phenyl)benzenesulfonamide]  11 µM
16. Cc1cc(S(=O)(=O)Nc2cccc(-c3ncco3)c2)c(C)cc1Cl [Example 17, 4-chloro-2,5-dimethyl-N-(3-(oxazol-2-yl)phenyl)benzenesulfonamide]  6 µM
17. Cc1cc(S(=O)(=O)Nc2cccc(-c3nccs3)c2)c(C)cc1Cl [Example 16, 4-chloro-2,5-dimethyl-N-(3-(thiazol-2-yl)phenyl)benzenesulfonamide]  5 µM
